Assay results taken from ChEMBL document CHEMBL1201862, “PubChem BioAssay data set” (2004).
Activity calls are given as the source filed them. Cut-off read from the data, not from the text of the source, for most assays here: actives have a measured EC50 and inactives only a lower limit.

Columns and labels:
[1] = viability of uninfected HEp-2 cells – cell-based, HTS, cytotoxicity control for RSV inhibitor project, dose response (AID 2410); assay type: functional; settings: human respiratory syncytial virus
[2] = NIH-3T3 fibroblast cytotoxicity, dose response, cytotoxicity control, cell-based, fluorescence, Alamar Blue, secondary assay (AID 2327); assay type: functional;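 note: NIH-3T3 mouse fibroblasts cultured with fluconazole at 8 µg/mL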
[3] = fluconazole-exposed Candida albicans growth modulators – fluorescence, retest, confirmation (AID 2467); assay type: functional, cell-based
[4] = Luminescence Cell-Based Dose Retest to Confirm Inhibitors of Cancer Stem Cells. [Related pubchem assays (depositor defined):AID2717, AID2721]; assay type: functional; settings: Homo sapiens
[5] = biological target: T1, Heat shock factor protein 1 (Mus musculus, UniProt P38532); experiment: enhancement of HSF1-driven luciferase signal – cell-based, NIH3T3, luminescence, dose retest, confirmation (AID 435004); assay type: functional;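 note: stress induced by proteasome inhibitor MG132 added 30 min after compound; luciferase reporter driven by HSF1 response element in NIH3T3 cells; actives raise luminescence as potentiators of the MG132 stress response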
T1 sequence (P38532 whole entry): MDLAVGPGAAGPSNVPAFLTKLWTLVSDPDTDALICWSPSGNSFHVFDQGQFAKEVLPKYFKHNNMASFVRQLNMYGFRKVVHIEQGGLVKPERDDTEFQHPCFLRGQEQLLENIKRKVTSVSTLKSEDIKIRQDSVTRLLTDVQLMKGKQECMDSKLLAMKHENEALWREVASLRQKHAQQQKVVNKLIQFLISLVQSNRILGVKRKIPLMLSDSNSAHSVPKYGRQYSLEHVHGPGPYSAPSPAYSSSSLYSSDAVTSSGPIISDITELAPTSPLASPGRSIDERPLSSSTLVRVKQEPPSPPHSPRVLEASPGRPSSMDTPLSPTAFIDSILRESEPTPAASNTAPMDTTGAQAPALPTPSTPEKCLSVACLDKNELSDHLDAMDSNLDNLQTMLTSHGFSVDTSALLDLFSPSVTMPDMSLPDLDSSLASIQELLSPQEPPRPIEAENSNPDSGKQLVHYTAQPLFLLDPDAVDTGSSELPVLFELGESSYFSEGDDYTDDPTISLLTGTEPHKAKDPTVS

[6] = biological target: T1, Heat shock factor protein 1; experiment: decrease of HSF1-responsive luciferase luminescence – cell-based, NIH3T3, dose retest, confirmation (AID 2382); assay type: functional;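 note: NIH3T3 fibroblasts with HSF1-driven luciferase reporter stressed by proteasome inhibitor MG132; luminescence from HSF1-driven luciferase expression after 8 hours of MG132 stress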
INS1 = experiment: INS-1E survival protection against cytokine death – cell-based, luminescence, retest, dose response (AID 449756); assay type: functional; settings: Rattus norvegicus;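 note: cell death triggered by IL-1 beta plus TNF-alpha plus IFN-gamma mixture; protective hits raise ATP signal compared with cytokine alone wells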
[7] = tested on: Streptococcus sp. 'group A'; experiment: Streptococcus pyogenes SK(-)GAS viability under kanamycin – luminescence, BacTiterGlo, confirmation, counter-screen for streptokinase expression inhibitor project, dose response (AID 1900); assay type: functional, organism-based
Streptokinase A = biological target: T2, Streptokinase A (Streptococcus pyogenes serotype M1, UniProt P10520); experiment: viability-normalized secreted streptokinase activity reduction – plasminogen activation absorbance, OD405, dose response (AID 1914); assay type: functional, Streptococcus pyogenes M1 GAS;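 note: secreted streptokinase activity via plasminogen activation per viability signal from cell pellet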
T2 sequence (P10520 whole entry): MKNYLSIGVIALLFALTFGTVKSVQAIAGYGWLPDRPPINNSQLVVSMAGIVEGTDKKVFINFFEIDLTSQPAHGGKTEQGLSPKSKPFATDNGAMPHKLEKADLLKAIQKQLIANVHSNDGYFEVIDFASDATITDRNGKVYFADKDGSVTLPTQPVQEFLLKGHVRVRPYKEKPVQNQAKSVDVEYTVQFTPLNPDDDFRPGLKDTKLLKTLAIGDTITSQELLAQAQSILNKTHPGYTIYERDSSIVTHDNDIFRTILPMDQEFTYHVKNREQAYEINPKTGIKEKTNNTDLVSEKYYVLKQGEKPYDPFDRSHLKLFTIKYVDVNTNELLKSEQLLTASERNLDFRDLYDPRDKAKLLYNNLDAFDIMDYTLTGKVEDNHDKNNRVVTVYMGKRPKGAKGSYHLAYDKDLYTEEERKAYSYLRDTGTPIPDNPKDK

Streptococcus = experiment: GAS UMAA2166 growth inhibition – luminescence, BacTiterGlo, counter-screen for streptokinase expression inhibitor project, dose response (AID 1915); assay type: functional, organism-based;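 note: potency for reduction of bacterial viability or growth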
[8] = Trypanosoma cruzi growth suppression in host cells – NIH3T3 host cells, beta-gal luminescence, confirmation (AID 2044); assay type: functional, cell-based;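 note: intracellular parasites grown in NIH/3T3 mouse fibroblasts as host cells; luminescent beta-galactosidase reporter signal from transgenic T. cruzi replicating inside host cells; inhibitors lower the luminescence signal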
[9] = NIH3T3 cell viability loss – ATP luminescence, mouse fibroblasts, counter-screen, dose response (AID 2010); assay type: functional, cell-based;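 note: cells exposed to compound for about 90 hours before reading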

Cc1ccccc1/C=N/NC1=NC(=O)CCS1
CC50 [1]: 26.4 µM (active)

Clc1ccc(-c2cs/c(=N\c3cccnc3)n2CCCn2ccnc2)cc1Cl
CC50 [1]: 15.4 µM (active)

Cc1nc(SCC(=O)NCC2CCCO2)c2cc(-c3ccccc3)sc2n1 (stereo unspecified)
CC50 [1]: 20.3 µM (active)

Cc1ccc(NNC(=O)c2cccs2)cc1Cl
EC50 [2]: 29.6 µM (active)
EC50 [3]: 1.62 µM (active)
AC50 [4]: 1.96 µM (active)
EC50 [5]: > 260 µM (inactive)

COc1ccccc1-c1cc(C(=O)N2CCN(c3ccccc3)CC2)no1
CC50 [1]: 31.9 µM (active)

Cc1nc(C(=O)NNC(=O)c2cccc(Cl)c2)c(C(F)(F)F)o1
EC50 [6]: > 195 µM (not active)

CCC(C(=O)OCC(=O)Nc1cc(Cl)ccc1Cl)c1ccccc1 (stereo unspecified)
EC50 [6]: > 195 µM (not active)

C(=C\c1nc(N2CCCCCC2)c2ccccc2n1)/c1ccccc1
AC50 [4]: 3.73 µM (active)
AC50 (INS1): 6.21 µM (active)

Nc1cc(-c2ccco2)no1
EC50 [5]: 60.4 µM (active)

Nc1ncnc2c1ncn2[C@@H]1O[C@H](CO)C[C@H]1O [CORDYCEPIN]
EC50 [2]: > 150 µM (inconclusive)
EC50 [3]: 4.1 µM (active)

O=C(CCc1nnc(Cc2ccc(-c3ccccc3)cc2)o1)N1CCCC1
EC50 [5]: > 260 µM (inactive)

Cc1ccc(CN2CN(S(=O)(=O)c3cccs3)c3nc4ccccc4nc32)cc1
EC50 [7]: 56 µM (active)
EC50 (Streptokinase A): > 150 µM (not active)
EC50 (Streptococcus): 63.7 µM (active)

Cc1ccccc1-n1c(C)nc2ccccc21
EC50 [6]: > 195 µM (not active)

O=C(COC(=O)CNC(=O)c1ccccc1F)Nc1cccnc1Cl
EC50 [6]: > 195 µM (not active)

COC(=O)c1ccc(CNC(=O)COC(=O)COc2ccc(OC)cc2)cc1
EC50 [6]: > 195 µM (not active)

COCCCN1C(=O)c2[nH]nc(-c3ccccc3O)c2C1c1cccc(Cl)c1 (stereo unspecified)
EC50 [5]: 59.7 µM (active)

CCN(CC)CCN(C(=O)CCS(=O)(=O)c1ccccc1)c1nc2cc(C)cc(C)c2s1
EC50 [7]: > 150 µM (not active)
EC50 (Streptokinase A): > 150 µM (not active)
EC50 [8]: 0.697 µM (active)
EC50 [9]: > 30 µM (not active)
EC50 (Streptococcus): > 150 µM (not active)

COc1ccc(C(=O)c2coc3ccc(O)c(CN(C)C)c23)cc1
EC50 [5]: > 260 µM (inactive)

COc1ccc(-c2noc3c2-c2nc(-c4ccccc4C)sc2CC3)cc1
AC50 [4]: 0.689 µM (active)

CCc1nnc(NC(=O)Cn2ccc(C(F)(F)F)n2)s1
EC50 [2]: > 150 µM (inactive)
EC50 [3]: > 38 µM (not active)

CC1(C)CC(N/C=C2/C(=O)N(Cc3ccc4c(c3)OCO4)C(=O)c3ccccc32)CC(C)(C)N1
EC50 [2]: > 160 µM (inactive)
EC50 [3]: 5.68 µM (active)

O=C(Cc1ccccc1)NCCS(=O)(=O)N1CCN(c2ccccc2)CC1
EC50 [7]: > 150 µM (not active)
EC50 (Streptokinase A): > 150 µM (not active)
EC50 (Streptococcus): > 150 µM (not active)

Cc1ccc(NC(=O)Cn2c(CCC(=O)O)ccc2-c2cccs2)cc1
EC50 [5]: > 260 µM (inactive)

N#C/C(=C(/O)c1ccco1)c1nc2ccccc2[nH]1
EC50 [2]: > 150 µM (inactive)
EC50 [3]: 4.11 µM (active)

COc1ccc(NC(=O)c2nn(C)c(=O)c3ccccc23)cc1S(=O)(=O)Nc1ccccc1Cl
EC50 [5]: 18.4 µM (active)
